For 16 compounds, TGI and GI50 results are on record in PubChem BioAssay (NCI).

What all share (assay): NCI anticancer screen, dose series, 48 h
In assay [1] the test system is NCI-H522 lung.
For assay [2], the system named is HT29 colon.
Assay [3] deals with HCT-15 colon.
Assay [4] deals with SK-MEL-5 melanoma.
Assay [5] concerns SF-539 CNS.
In assay [6] the test system is NCI-H226 lung.
Assay [7] concerns MDA-MB-435.
Assay [8] relates to SNB-19 CNS.
Assay [9] concerns SR leukemia.
Assay [10] relates to MDA-N.

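Step 1: Grow cells in 96-well plates. Step 2: Expose to compound for 48 hours at 5 concentrations. Step 3: Interpolate endpoints linearly; if unreached, use highest concentration. Abbreviation: GI50, concentration required for 50% inhibition of growth. The concentration for full growth arrest is given as TGI.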

For the compound `ON=C(CC(O)(C(F)(F)Cl)C(F)(F)Cl)CC(O)(C(F)(F)Cl)C(F)(F)Cl`, the TGI in assay [1], in assay [2], in assay [3], in assay [4], in assay [5] and in [6] was greater than 10 µM each time. The TGI in assay [7], in [8] and in assay [9] was greater than 10 µM in each case.

Take `Cc1ccc(N/C(SCc2ccccc2)=C(\C(Cl)=C(Cl)Cl)[N+](=O)[O-])c(C)c1`: the TGI in assay [10] was 65.1 µM; in assay [2] it was greater than 100 µM; in assay [3], 34.9 µM; in assay [5] it was 46.1 µM; in assay [6], greater than 100 µM; in assay [7], 26.1 µM. Further, the TGI in assay [8] is greater than 100 µM.

As for `COc1ccc(-c2oc3c(OC)c(OC)cc(O)c3c(=O)c2OC)cc1`, the TGI is greater than 100 µM in [10]; greater than 100 µM in assay [1]; greater than 100 µM in assay [2]; greater than 100 µM in assay [3]; greater than 100 µM in assay [4]; 72.5 µM in assay [5]. For the same compound, the TGI in assay [6], in assay [7] and in [8] was greater than 100 µM in each case.

In the case of `CNc1nc(C(N)=O)c(N)s1`, the TGI in assay [10], in assay [1], in [2], in assay [3], in [4] and in assay [5] was greater than 100 µM in each case. Further, the TGI in assay [6], in assay [7] and in [8] was greater than 100 µM in each case.

Turning to `COc1cc2c(cc1OC)[C@@H](Nc1ccc(F)cc1)C1COC(=O)[C@@H]1C2c1cc(OC)c(O)c(OC)c1` (some centres not stated), the TGI in [1] was 18.9 µM; in [2] it was greater than 58.3 µM; in assay [3], greater than 32.1 µM; in assay [4], 23.2 µM; in assay [5] it was 4.26 µM; in [6], 1.64 µM. For the same compound, the TGI in assay [8] was greater than 100 µM; in assay [9] it was 0.282 µM.

As to `O=C(c1ccc(Cl)cc1)N(C(=S)OCCOc1ccccc1)c1ccccc1`, the TGI in assay [10] worked out at 33.3 µM; in assay [1], 43.7 µM; in assay [2] it was 35.6 µM; in assay [3], 42.2 µM; in assay [5], 34 µM; in [7] it was 30.7 µM. Besides, the TGI in assay [8] was 42.8 µM.

With `CCN(CC)c1oc(N(CC)CC)c(C(=O)Nc2ccccn2)c(=O)c1C(C)=O`, the TGI in [1], in [2], in assay [3], in assay [4], in [5] and in assay [6] was greater than 100 µM each time. Besides, the TGI in assay [8] and in assay [9] was greater than 100 µM throughout.

With `COc1ccc2nc3cc(Cl)ccc3c(SCC(=O)Nc3ccccc3-c3ccccc3NC(=O)CSc3c4ccc(Cl)cc4nc4ccc(OC)cc34)c2c1`, the TGI in assay [1], in assay [2], in assay [3], in assay [4], in assay [5] and in [6] was greater than 100 µM in each case. This compound displayed a TGI in assay [8] greater than 100 µM.

`c1ccc2c(c1)OC(N1CCCC1)c1cnc(N3CCOCC3)nc1-2` (configuration not stated): the TGI in assay [2], in [3], in [5], in [6], in assay [7] and in [8] was greater than 100 µM in each case. The compound further returned a TGI in assay [9] greater than 100 µM.

In the case of `CC(C)Oc1c(-c2ccc(F)cc2)c(O)c2c3c1oc(=O)n3C=CC2C` (configuration not stated), the TGI was found to be 27.1 µM in [10]; 27.2 µM in [1]; 30.2 µM in [2]; 29.7 µM in assay [3]; 22.9 µM in assay [4]; 26.4 µM in assay [5]. The TGI in assay [6] worked out at 26.9 µM; in assay [7], 52.9 µM; in assay [8] it was 31.9 µM.

For `CCOC(=O)c1nc2ccc(C(F)(F)F)cc2nc1Oc1ccc(C(=O)OC)cc1`, the TGI in assay [2], in assay [3], in [4], in [5], in [6] and in assay [7] was greater than 100 µM throughout. The TGI in [8] and in [9] was greater than 100 µM in each case.

With `Cc1cnc2[nH]c(-c3ccc4ccccc4c3)cc(=O)c2c1`, the TGI is 2.25 µM in [1]; greater than 100 µM in [2]; 21.7 µM in assay [3]; greater than 100 µM in assay [4]; 9.07 µM in assay [5]; greater than 100 µM in assay [6]. Further, the TGI in [8] was greater than 100 µM. In assay [4], the GI50 was 0.359 µM.

As for `Cc1cccc(N/C(Sc2ccccc2)=C(/C(Cl)=C(Cl)Cl)[N+](=O)[O-])c1`, the TGI in [10] came to 45.8 µM; in assay [2], 43.1 µM; in [3], 29.4 µM; in assay [5], 31.3 µM; in [6] it was 35.2 µM; in assay [7], 34 µM. For the same compound, in assay [8], the TGI is greater than 100 µM.

With `COC1=C(C)C(=O)c2c(cc3c(c2O)C(C)(CCC=C(C)C)C(C)O3)C1=O` (configuration not stated), the TGI is greater than 100 µM in assay [1]; greater than 100 µM in assay [2]; greater than 57.2 µM in assay [3]; 27.4 µM in assay [4]; greater than 100 µM in assay [5]; 37.5 µM in assay [6]. In addition, the TGI was 34.5 µM in assay [8] and greater than 100 µM in assay [9].

On to `CC(=O)O[C@H]1CCC2[C@@H]3CCC4c5nonc5CC[C@]4(C)C3CC[C@@]21C` (some centres not stated), for which the TGI in [1] is greater than 10 µM; in [2] it was greater than 100 µM; in assay [3] it was greater than 10 µM; in [4], greater than 10 µM; in assay [5], greater than 10 µM; in [6], greater than 10 µM. In [8], the TGI is greater than 10 µM. In assay [2], the GI50 was greater than 100 µM.

On to `N#Cc1c(-c2ccccc2)c(CN2CCCCC2)c(=O)n2c1[nH]c1ccccc12`, for which the TGI in assay [10] was greater than 100 µM; in assay [1] it was 61.7 µM; in assay [3], greater than 100 µM; in assay [4], 34.1 µM; in assay [5], greater than 100 µM; in [6], greater than 100 µM. In addition, the TGI in assay [7] and in [8] was greater than 100 µM in each case.
